# In patent US10072006B2 (MUTABILIS, priority 2015, dated 2018):
# Assays:
# OXA-11 = target: T1, OXA-11 (Pseudomonas aeruginosa, UniProt Q06778); test: β-lactamase inhibitory activity, determination of IC50 (nitrocefin hydrolysis); type: biochemical
# T1 construct: made in house; host or cells: E. coli
# KPC-2 = target: T2, KPC-2 (Klebsiella pneumoniae, UniProt Q9F663); test: as above; type: biochemical
# T2 construct: made in house; host or cells: E. coli
# OXA-1 = target: T3, OXA-1 (Escherichia coli, UniProt P13661); test: as above; type: biochemical
# T3 construct: made in house; host or cells: E. coli
# OXA-15 = target: T4, OXA-15 (Pseudomonas aeruginosa, UniProt Q51574); test: as above; type: biochemical
# T4 construct: made in house; host or cells: E. coli
# CTX-M-15 = target: T5, CTX-M-15 (Escherichia coli, UniProt Q9EXV5); test: as above; type: biochemical
# T5 construct: made in house; host or cells: E. coli
# OXA-48 = target: T6, OXA-48 (Klebsiella pneumoniae, UniProt Q6XEC0); test: as above; type: biochemical
# T6 construct: made in house; host or cells: E. coli
# TEM-1 = target: T7, TEM-1 (Escherichia coli, UniProt P62593); test: as above; type: biochemical; details: class (A), 30 min pre-incubation
# T7 construct: made in house; host or cells: E. coli
# SHV-1 = target: T8, SHV-1 (Klebsiella pneumoniae, UniProt P0AD64); test: as above; type: biochemical
# T8 construct: made in house; host or cells: E. coli
# AmpC (P99) = AmpC (P99) (Enterobacter cloacae, UniProt P05364); test: biochemical
# [1] = system: E. coli 190317 (TEM-1, SHV-12, CTX-M-15, OXA-1); test: microbe, parasite or virus in culture; type: cell-based
# Method: Briefly, compounds alone according to the invention were prepared in DMSO and spotted (2 μL each) on sterile polystyrene plates (Corning, 3788). […] Microplates were incubated for 16-20 h at 35° C. in ambient air. The MIC of the compounds was defined as the lowest concentration of said compounds that prevented bacterial growth as read by visual inspection.
# [2] = system: K. pneumoniae BAA-1898 (TEM-1, SHV-11, SHV-12, KPC-2); test: MIC of compounds and synergy with ceftazidime (broth microdilution); type: cell-based; details: strain BAA-1898 (K. pneumoniae)
# Procedure, shortened: (§1)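 First, test compounds prepared in DMSO are spotted on sterile plates. Next, plates incubate at 35° C under ambient air for 16-20 h. Finally, wells are inspected by eye, and the lowest concentration without growth gives the MIC.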
# [3] = system: P. aeruginosa UFR59 (IMP-29); test: as above; type: cell-based; details: MIC of ceftazidime with compound fixed at 4 μg/mL; strain UFR59 (P. aeruginosa)
# Procedure, shortened: as §1
# [4] = system: P. aeruginosa UFR90 (Derepressed ampC, OprD-); test: as above; type: cell-based; details: MIC of ceftazidime with compound fixed at 4 μg/mL; strain UFR90 (P. aeruginosa)
# Procedure, shortened: as §1
# E. coli RGN238 (OXA-1) = test: as above; type: cell-based; details: Escherichia coli, 18 h; strain RGN238 (E. coli); read-out: MIC compounds of the invention alone
# Procedure, shortened: as §1
# [5] = system: K. pneumoniae 6299 (TEM-1, SHV-11, OXA-163); test: as above; type: cell-based; details: strain 6299 (K. pneumoniae)
# Procedure, shortened: as §1
# [6] = system: P. aeruginosa CIP107051 (TEM-24); test: as above; type: cell-based; details: strain CIP107051 (P. aeruginosa)
# Procedure, shortened: as §1
# [7] = system: P. aeruginosa UFR48 (VIM-2); test: as above; type: cell-based; details: MIC of ceftazidime with compound fixed at 4 μg/mL; strain UFR48 (P. aeruginosa)
# Procedure, shortened: as §1
# [8] = system: P. aeruginosa UFR47 (VIM-1); test: as above; type: cell-based; details: MIC of ceftazidime with compound fixed at 4 μg/mL; strain UFR47 (P. aeruginosa)
# Procedure, shortened: as §1
# [9] = system: P. aeruginosa UFR92 (Derepressed ampC, OprD-); test: as above; type: cell-based; details: MIC of ceftazidime with compound fixed at 4 μg/mL; strain UFR92 (P. aeruginosa)
# Procedure, shortened: as §1
# [10] = system: E. coli 131119 (TEM-1, OXA-48); test: as above; type: cell-based; details: Escherichia coli, 18 h; strain 131119 (E. coli); read-out: MIC compounds of the invention alone
# Procedure, shortened: as §1
# [11] = system: P. aeruginosa CIP105250 (OXA-15); test: as above; type: cell-based; details: strain CIP105250 (P. aeruginosa)
# Procedure, shortened: as §1
# [12] = system: P. aeruginosa UFR35 (OXA-23); test: as above; type: cell-based; details: MIC of ceftazidime with compound fixed at 4 μg/mL; strain UFR35 (P. aeruginosa)
# Procedure, shortened: as §1
# [13] = system: E. cloacae P99 (Derepressed ampC); test: as above; type: cell-based; details: strain P99 (E. cloacae)
# Procedure, shortened: as §1
# [14] = system: P. aeruginosa UFR93 (Derepressed ampC, OprD-, MexAB+, MexXY+); test: as above; type: cell-based; details: MIC of ceftazidime with compound fixed at 4 μg/mL; strain UFR93 (P. aeruginosa)
# Procedure, shortened: as §1
# AmpC (PAE) = AmpC (PAE) (Pseudomonas aeruginosa, UniProt P24735); test: biochemical
# [15] = MIC of ceftazidime with compound fixed at 4 μg/mL
# [16] = Pseudomonas aeruginosa, 18 h, read-out: MIC compounds of the invention alone
smiles,measurement,setting,value
Cn1cc(C2=C[C@@H](CN)N3C[C@@H]2N(OS(=O)(=O)O)C3=O)cnc1=O (relative stereo) [Example 6],IC50,OXA-11,1600 nM
same,IC50,KPC-2,5.1 µM
same,IC50,OXA-1,1200 nM
same,IC50,OXA-15,68 nM
same,IC50,CTX-M-15,510 nM
same,IC50,OXA-48,840 nM
same,IC50,TEM-1,280 nM
same,IC50,SHV-1,340 nM
same,IC50,AmpC (P99),6.4 µM
same,MIC,"[1]; Escherichia coli, 18 h, read-out: MIC compounds of the invention alone",0.125 µg/mL
same,"MIC, combination of CAZ and compounds of the invention","[1]; MIC of ceftazidime with compound fixed at 4 μg/mL, strain 190317 (E. coli)",<0.125 µg/mL
same,MIC,"[2]; Klebsiella pneumoniae, BAA1898, read-out: MIC compounds of the invention alone",> 32 µg/mL
same,"MIC, combination of CAZ and compounds of the invention",[2]; [15],4 µg/mL
same,"MIC, combination of CAZ and compounds of the invention",[3],<0.25 µg/mL
same,"MIC, combination of CAZ and compounds of the invention",[4],<0.25 µg/mL
same,MIC,E. coli RGN238 (OXA-1),> 32 µg/mL
same,MIC,"[5]; Klebsiella pneumoniae, 18 h, read-out: MIC compounds of the invention alone",> 32 µg/mL
same,"MIC, combination of CAZ and compounds of the invention",[5]; [15],4 µg/mL
same,"MIC, combination of CAZ and compounds of the invention",[6]; [15],32 µg/mL
same,MIC,[6]; [16],16 µg/mL
same,"MIC, combination of CAZ and compounds of the invention",[7],<0.25 µg/mL
same,"MIC, combination of CAZ and compounds of the invention",[8],<0.25 µg/mL
same,"MIC, combination of CAZ and compounds of the invention",[9],<0.25 µg/mL
same,MIC,[10],> 32 µg/mL
same,"MIC, combination of CAZ and compounds of the invention",[11]; [15],64 µg/mL
same,MIC,[11]; [16],32 µg/mL
same,"MIC, combination of CAZ and compounds of the invention",[12],<0.25 µg/mL
same,MIC,"[13]; Enterobacter cloacae, 18 h, read-out: MIC compounds of the invention alone",0.125 µg/mL
same,"MIC, combination of CAZ and compounds of the invention",[13]; [15],≤0.125 µg/mL
same,"MIC, combination of CAZ and compounds of the invention",[14],<0.25 µg/mL
same,IC50,AmpC (PAE),38 µM
